Data: patent US6835382B2, “Ii peptide therapeutics to enhance antigen presentation” (University of Massachusetts, priority 1996, dated 2004)
Positions of bridges follow the written chain, without caps; N, C: chain ends. Non-standard residues stand in square brackets, D forms with d. No end group written: not given here. hArg = N=C(N)NCCCC[C@H](N)C(=O)O; Cit = NC(=O)NCCC[C@H](N)C(=O)O

Target: T1, murine E^d MHC class II allele (Mus musculus, UniProt P01904+P01915)
T1 sequence (P01904 26-255): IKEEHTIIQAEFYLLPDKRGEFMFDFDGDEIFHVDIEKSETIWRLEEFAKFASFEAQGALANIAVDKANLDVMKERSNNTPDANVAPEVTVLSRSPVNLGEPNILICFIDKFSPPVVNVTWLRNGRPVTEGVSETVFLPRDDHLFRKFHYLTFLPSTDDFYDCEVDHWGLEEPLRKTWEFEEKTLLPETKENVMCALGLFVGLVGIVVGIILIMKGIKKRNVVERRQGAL
T1 sequence (P01915 27-264 limits assumed): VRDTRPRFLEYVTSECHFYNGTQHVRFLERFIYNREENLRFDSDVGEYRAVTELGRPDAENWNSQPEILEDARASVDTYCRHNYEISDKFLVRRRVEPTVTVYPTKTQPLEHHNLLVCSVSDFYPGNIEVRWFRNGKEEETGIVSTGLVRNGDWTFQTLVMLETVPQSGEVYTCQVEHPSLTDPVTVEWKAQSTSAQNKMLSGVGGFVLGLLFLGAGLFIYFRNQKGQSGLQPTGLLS
Test: processed antigen assay, E^d allele (APC pulsed with native HEL)
Assay type: cell-based
Parameters: The A20 and CH27 B cell lymphoma lines express H-2^d and H-2^k alleles, respectively; endogenous in cells; host or cells: A20 B cell lymphoma (mitomycin C-treated or paraformaldehyde-fixed)
Conditions: AE peptide 64 μM; for Activity in processed antigen assay, E^d (baseline = 1.0): Table 34, native HEL 10 μM prepulse, supernatant 1:8; for T cell response relative to baseline (None = 1.0), E^d: Table 32, native HEL prepulse 20 μM; for T cell response relative to baseline (None = 1.0), E^d / T cell response relative to baseline (None = 1.00), E^d: supernatant dilution 1:4; for T cell response relative to baseline (None = 1.00), E^d: Table 31, native HEL prepulse 10 μM
Description: In a third type of assay, the “processed antigen assay”, certain of the AE101 series of peptides inhibit stimulation of specific T cell hybridomas by antigenic peptides which are derived from the endogenous processing of a native protein antigen. This assay, which is related to the peptide prepulse assay, is performed by incubating APC with native protein antigen for 8 h, after which the pulsed APC are washed and treated with mitomycin C. Those pulsed APC are then combined with AE101 series peptides and T cell hybridomas and are incubated for 24 h. After that incubation, an aliquot of the culture supernatant is transferred to a second culture to measure T cell stimulation, as reflected in the effect of released interleukins on the growth of an interleukin-dependent, indicator cell line. During the 8 h incubation with native protein antigen, the protein antigen is taken into the APC. The native protein enters the processing pathway within the APC, where it is enzymatically cleaved to peptide fragments. Those peptide fragments with high affinity for the particular MHC class II molecules produced by the APC form antigenic peptide/MHC class II complexes which are transported to the cell surface. At the cell surface, the MHC class II molecules are contacted by the AE101 peptides, which cause the release of the antigenic peptide by the same mechanism proposed for the “peptide prepulse” assay above.
The “processed antigen assay” was carried out under essentially the same conditions as the “peptide prepulse assay”, with the following modifications. Untreated APC were incubated at 1×10^6/mL in 24-well plates (1 mL/well) with native protein antigen for 8 h. Following that incubation, the pulsed APC were washed, treated with mitomycin C, and washed again. AE101 series peptide was added at 64 μM, 16 μM, 4 μM, and 1 μM concentrations for 24 h in the presence of the T cell hybridoma specific for the antigenic peptide. Interleukin release from these cultures was measured by proliferation of HT-2 cells to interleukins in supernatants transferred from the primary culture. The baseline T cell response was measured by culturing T hybridoma cells with the native antigen-prepulsed APC in the absence of AE101 series peptides.
The “processed antigen assay” was carried out under essentially the same conditions as the “peptide prepulse” assay, with the following modifications. Untreated APC were incubated at 1×10^6/mL in 24-well plates (1 mL/well) with native protein antigen for 8 h. Following incubation, the pulsed APC were washed, treated with mitomycin C, and were washed again. The assay conditions were then as described for “peptide prepulse” above. The baseline T cell response was measured by culturing T hybridoma cells with the native antigen-prepulsed APC in the absence of AE101 peptides.
Table 2.9: Activities of substitution series at Leucine^80 in AE114 in a processed antigen assay. […] The results in this assay constitute, relatively, a mirror image of the result in the simultaneous assay (Example 1, Table 7) and parallel those of the antigenic peptide prepulse assay (Example 5, Table 24). Untreated APC were incubated with native HEL, instead of antigenic peptide, for 8 h. After incubation, the pulsed cells were washed and mitomycin C treated before being cocultured with AE-peptides and T cell hybridomas. Wells containing only T cells and native HEL-prepulsed APC were used to determine the Baseline response, or 1, in the absence of AE peptides. The concentration of AE peptide used was 64 μM for these assays. The supernatant dilutions used in the HT-2 cell assay were 1:4 (first value) and 1:8 (second value).

Substance | T cell response relative to baseline (None = 1.0), E^d | other results
cyclic LRMKLPK (bridge (positions not given here); also: cyclic, ring type not given here) [AE381, “head-to-tail” cyclization from the amino-terminus to the carboxyl-terminus of AE114] | – | Activity in processed antigen assay, E^d (baseline = 1.0): 0.18
Ac-L[hArg]LKYPK-NH2 [AE361] | 0.51 | –
Ac-LRMKLPK (lactam 4-C) [AE382] | – | Activity in processed antigen assay, E^d (baseline = 1.0): 0.61
Ac-L[hArg]MKYPK-NH2 [AE360] | 0.64 | –
Ac-A[Cit]NKNPK-NH2 [AE351] | – | T cell response relative to baseline (None = 1.00), E^d: 0.87
Ac-LR HArg MYPK-NH2 [AE365] | 0.65 | –
Ac-LRMKNPF-NH2 [AE350] | – | T cell response relative to baseline (None = 1.00), E^d: 0.56
Ac-FK HArg MYP Cit-NH2 [AE371] | 0.61 | –
Ac-LRMMYP[Cit]-NH2 [AE367] | 0.69 | –
Ac-LRLKYPN-NH2 [AE368] | 0.55 | –
Ac-LR HArg KYP Cit-NH2 [AE366] | 0.53 | –
Ac-LRMKYP[Cit]-NH2 [AE364] | 0.56 | –
Ac-LR Orn K HArg PK-NH2 [AE340] | – | T cell response relative to baseline (None = 1.00), E^d: 0.16
Ac-LRMKYPN-NH2 [AE370] | 0.55 | –
Ac-LK HArg KYPK-NH2 [AE363] | 0.75 | –
Ac-LKMKYPK-NH2 [AE362] | 0.58 | –
